Results: patent US12005049B2, “Methods of preventing cancer metastasis” (MediciNova, Inc., priority 2021, dated 2024)

Experiments:
Omm1.3 cells [1] = assay: Wound healing (scratch) assay, Omm1.3; format: cell-based; conditions: exposed to HCM+UM-exo, 25 μM ibudilast, 48 hours
Method: FIG. 1C depicts Omm1.3 cells in scratch assays, in which after the scratch, the cells were incubated with control HCM or with HCM of hepatocytes exposed to UM-exosomes with or without 25 μM ibudilast. Pictures were taken at zero time-point or after 48 hours under a microscope at 10× magnification. Wound healing assay. Omm1.3 and MP41 cells were scratched with a sterile 200 μL pipette tip. Cells were washed in PBS and replaced with fresh RPMI 1640 complete media, or hepatocyte conditioned media (HCM) pretreated with UM-exo. Images of the wounded area were recorded using an inverted phase-contrast microscope at the indicated time points.

[2] = Sanftner et al Xenobiotica 2009; cited from earlier work
MP41 cells = assay: Wound healing (scratch) assay, MP41; format: cell-based; conditions: exposed to HCM+UM-exo; data not shown
Method: Wound healing assay. Omm1.3 and MP41 cells were scratched with a sterile 200 μL pipette tip. Cells were washed in PBS and replaced with fresh RPMI 1640 complete media, or hepatocyte conditioned media (HCM) pretreated with UM-exo. Images of the wounded area were recorded using an inverted phase-contrast microscope at the indicated time points.

Omm1.3 cells [3] = assay: Transwell migration assay; format: cell-based; conditions: HCM+UM-exo as chemoattractant, 24 hrs, 25 μM ibudilast, 10 μM diacerein, 1.0 μM reparixin, 0.25 μM crizotinib
Method: FIG. 1A depicts trans-well migration assay results in which Omm1.3 cells were stimulated with hepatocyte conditioned media and uveal melanoma exosomes (HCM+UM-exo) in the presence of vehicle (DMSO), 10 μM diacerein, 1.0 μM reparixin, 0.25 μM crizotinib or 25 μM ibudilast.
FIG. 1B depicts migrated cell count under the microscope from the trans-well migration assay, three fields for each condition. Experiments were repeated three times ±sd, p<0.001.
Exosome isolation. Exosomes were isolated from UM cell lines kept in serum-free media for 24 hrs. The media was collected and subjected to serial centrifugation steps starting with a spin at 3,000×g to remove dead cells and cell debris. The supernatant from this step is spun at 20,000×g to pellet microvesicles and large EVs. Lastly, the supernatant from this step is centrifuged at 100,000×g to pellet the exosome fraction.
Transwell migration assay. The in vitro migration assays were performed with 5×104 Omm1.3 cells seeded in 500 μL serum-free medium on BioCoat Matrigel Invasion Chambers (BD Biosciences). The conditioned media of the hepatocytes treated or untreated with UM-exosome was used as chemoattractant in the lower chamber. The cells were also treated with vehicle (DMSO), 0.25 μM crizotinib or 25 μM ibudilast for 24 hrs. […] Images of stained cells were taken through a microscope and quantified by counting cells in triplicate samples.

GFP-Luc-Omm1.3 cells = assay: Metastatic uveal melanoma (UM) mouse model; format: in vivo; conditions: UM-exosome-educated mice, 7.5 mg/kg ibudilast i.p. daily
Method: FIG. 2A depicts quantification of bioluminescence intensity for each mouse in the abdominal region, while excluding bioluminescence in the eyes, in an evaluation of ibudilast in a metastatic UM mouse model. […] FIG. 2B depicts representative images of H&E-stained mouse liver sections from the metastatic UM mouse model. Mice were injected intravenously with vehicle (PBS) or 10 μg UM-exosome isolated from […] in 100 μL PBS for 7 days. Subsequently, GFP-Luc-Omm1.3 cells were retro-orbitally injected in the mice as described in Surriga et al. (Mol. Cancer Ther., 2013, 12:2817-26). Ibudilast was dissolved to a concentration of 1 mg/ml in physiological saline containing 10% v/v of polyoxyethylene hydrogenated castor oil 60 (HCO60). A week later, the mice were treated daily with vehicle or 7.5 mg/kg ibudilast i.p. and monitored for the development of metastasis. […] The mice were monitored weekly for luminescence with luciferin (Gold Biotechnology). After 7 weeks the livers and lungs were collected and analyzed for luminescence. Experiments were carried out under an Institutional Animal Care and Use Committee—approved (IACUC) protocol, and Institutional guidelines for the proper and humane use of animals were followed. Statistical significance was determined by 2-sample Student t-test.

MIF = assay: Plasma level of MIF; conditions: found by the inventors; no method given

CC(C)C(=O)c1c(C(C)C)nn2ccccc12 [ibudilast, 2-methyl-1-(2-(1-methylethyl)pyrazolo(1,5-a)pyridin-3-yl)1-propanone]
wound healing ability of UM cell line Omm1.3 (Omm1.3 cells [1]): suppressed the wound healing ability
CNS penetration [2]: good. CNS penetration
wound healing ability of UM cell line MP41 (MP41 cells): suppressed the wound healing ability
UM cell migration toward UM-exosome-stimulated hepatocyte conditioned media (HCM) (Omm1.3 cells [3]): dramatically inhibited cell migration
metastatic spread (bioluminescence signal intensity in the abdominal region) (GFP-Luc-Omm1.3 cells): showed inhibition of metastatic spread
presence of cancer cell clusters in liver sections (H&E staining) (GFP-Luc-Omm1.3 cells): not in the livers
bioluminescence in lungs and livers at necropsy (GFP-Luc-Omm1.3 cells; after 7 weeks): no bioluminescence signal in organs
plasma level of MIF (MIF): lowers plasma level of MIF
